Like-named read-outs stand apart in the source and are kept apart here.
Columns and labels:
[1] = biological target: T1, IRAK1 (His-TEV-IRAK1 (194-712)) (Homo sapiens, UniProt P51617); test: IRAK1 enzymatic assay; format: biochemical; settings: human recombinant His-TEV-IRAK1, ATP 1 μM, 3 hours at 30° C., FlashPlate
T1 construct: His-TEV-IRAK1 (194-712); His (N); TEV cleavage site (N)
Method: IRAK1 Enzymatic Assay IRAK1 is a human purified recombinant enzyme (His-TEV-IRAK1 (194-712)). In this assay, IRAK-1 hydrolyses ATP and autophosphorylates. Measurement of IRAK-1 inhibition was performed in streptavidin coated 384 well FlashPlate (PerkinElmer #SM[…]). His-TEV-IRAK-1 (15 ng/well), ATP (1 μ[…]]ATP 0.25 μCi/well) and compounds in DMSO (range of concentrations from 20 μM to 1 nM) or controls (2% DMSO) were incubated for 3 hours at 30° C. in assay buffer: Hepes pH7.0 50 mM, Fatty acid-free BSA 0.1%, Dithiothreitol DTT 2 mM, MgCl2 10 mM, EGTA 0.5 mM, Triton-X-100 0.01%. Kinase reaction was stopped by addition of EDTA. Supernatant was discarded, plates were washed three times with 150 mM NaCl and radioactivity was then measured in a Microbeta Trilux reader.

IRAK4 (His-TEV-IRAK4) = biological target: T2, IRAK4 (His-TEV-IRAK4) (Homo sapiens, UniProt Q9NWZ3); test: IRAK4 enzymatic assay; format: biochemical; settings: human recombinant His-TEV-IRAK4, ATP 2 μM, STK1-biotin peptide 300 nM, 3 hours at 30° C., FlashPlate
T2 construct: His (N); TEV cleavage site (N)
T2 sequence (Q9NWZ3 1-460): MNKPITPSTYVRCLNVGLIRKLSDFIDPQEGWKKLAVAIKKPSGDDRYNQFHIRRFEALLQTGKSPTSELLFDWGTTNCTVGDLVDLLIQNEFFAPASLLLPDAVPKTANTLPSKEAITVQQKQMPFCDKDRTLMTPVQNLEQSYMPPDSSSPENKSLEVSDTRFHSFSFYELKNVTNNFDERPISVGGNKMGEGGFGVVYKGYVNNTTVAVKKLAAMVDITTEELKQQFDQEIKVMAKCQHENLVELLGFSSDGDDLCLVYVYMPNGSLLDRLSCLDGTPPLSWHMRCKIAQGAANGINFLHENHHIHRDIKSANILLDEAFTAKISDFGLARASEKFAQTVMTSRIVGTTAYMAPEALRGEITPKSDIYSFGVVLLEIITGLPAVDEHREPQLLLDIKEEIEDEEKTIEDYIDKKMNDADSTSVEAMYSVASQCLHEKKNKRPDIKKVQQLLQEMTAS
Method: IRAK4 Enzymatic Assay IRAK4 is a human purified recombinant enzyme (His-TEV-[…] (194-712). IRAK4 hydrolyses ATP, autophosphorylates and phosphorylates a Serine/Threonine generic peptidic substrate (STK: 61 ST1BLC from CisBio International based in Bagnols/Cèze FR). Measurement of IRAK-4 inhibition was performed in streptavidin coated 384 well FlashPlate (PerkinElmer #SM[…]). His-TEV-IRAK4 (20 ng/well), ATP (2 μM, [^33P]ATP 0.25 μCi/well), STK1-biotin peptide (300 nM) and compounds in DMSO (range of concentrations from 20 μM to 1 nM) or controls (2% DMSO) were incubated for 3 hours at 30° C. in assay buffer: Hepes pH7.0 50 mM, Fatty acid-free BSA 0.1%, Dithiothreitol DTT 2 mM, MgCl2 10 mM, EGTA 0.5 mM, Tween-20 0.01%, MnCl2 5 mM. Kinase reaction was stopped by addition of EDTA. Supernatant was discarded, plates were washed three times with 150 mM NaCl and radioactivity was then measured in a Microbeta Trilux reader.

[2] = test system: TLR7 induced IL-6 secretion in human PBMC's; test: TLR7 induced IL-6 in human PBMC's; format: cell-based; settings: read-out: TLR7 induced IL-6 secretion in hPBMC's (IC50)
Method: TLR7 Induced IL-6 in Human PBMC's Human PBMC assay was used as one of the functional assays to monitor the activity of IRAK1 and IRAK4 small molecule inhibitors on TLR7 induced IL-6 secretion in human mononuclear cells (PBMC's). Human PBMCs were prepared from buffy coats (whole blood enriched with leukocytes and platelets) obtained from healthy volunteers used either fresh or frozen are plated in assay media (RPMI+2% P/S/L-glu+10% HI-FBS) and pre-treated with compounds in DMSO/media (range of concentrations from 25 uM to 0.4 nM) or controls (0.25% DMSO) for 30 minutes at 37° C. in assay media. Following pre-treatment with IRAK1 and IRAK4 inhibitors, PBMC's were stimulated with TLR7 specific ligand (2 uM) overnight (16-18 hrs) at 37° C. After incubation supernatant was transferred to 384 well PE AlphaPlate-384 (6005350) and IL-6 is quantified using Perkin Elmer IL-6 Alpha LISA kit (A[…]). Plates were read on an Envision® plate reader with Alpha Technology®.

[3] = human PBMC, TLR7 specific ligand 2 uM overnight, IL-6 Alpha LISA

T1 sequence (P51617 194-712): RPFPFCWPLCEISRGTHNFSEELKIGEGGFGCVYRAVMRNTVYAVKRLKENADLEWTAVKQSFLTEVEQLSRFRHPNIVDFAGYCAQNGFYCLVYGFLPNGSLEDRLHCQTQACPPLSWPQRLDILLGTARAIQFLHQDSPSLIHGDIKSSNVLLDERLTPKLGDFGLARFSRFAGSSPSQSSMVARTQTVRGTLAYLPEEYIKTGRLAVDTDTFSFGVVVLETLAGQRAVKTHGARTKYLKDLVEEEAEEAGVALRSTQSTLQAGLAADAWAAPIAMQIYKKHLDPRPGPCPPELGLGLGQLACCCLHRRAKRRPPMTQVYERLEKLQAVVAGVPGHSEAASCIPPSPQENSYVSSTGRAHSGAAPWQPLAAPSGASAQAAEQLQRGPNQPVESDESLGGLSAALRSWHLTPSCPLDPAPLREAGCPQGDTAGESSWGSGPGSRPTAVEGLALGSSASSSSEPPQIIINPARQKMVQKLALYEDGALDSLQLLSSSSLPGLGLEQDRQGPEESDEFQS

Cn1cc(-c2cccc(-c3ncc(-c4cnn(C5CCNCC5CO)c4)cn3)c2)cn1 (mixture of isomers) [Compound 26, [4-(4-{2-[3-(1-Methyl-1H-pyrazol-4-yl)-phenyl]-pyrimidin-5-yl}-pyrazol-1-yl)-piperidin-3-yl]-methanol]
IC50 [1]: 100 to 1000 nM | IC50 (IRAK4 (His-TEV-IRAK4)): 100 to 1000 nM | IC50 [2, 3]: 1000 to 20000 nM

Cn1cc(-c2cccc(-c3ncc(-c4cnn(C5CCCC(C(=O)O)C5)c4)cn3)c2)cn1 (mixture of isomers) [Compound 41, Lithium 3-(4-{2-[3-(1-Methyl-1H-pyrazol-4-yl)-phenyl]-pyrimidin-5-yl}-pyrazol-1-yl)-cyclohexanecarboxylate]
IC50 [1]: 1000 to 20000 nM | IC50 (IRAK4 (His-TEV-IRAK4)): 100 to 1000 nM | IC50 ([2]; Homo sapiens, PBMC): 1000 to 20000 nM

C=CS(=O)(=O)N[C@@H]1CCC[C@H](n2cc(-c3cnc(-c4cccc(-c5cnn(C)c5)c4)nc3)cn2)C1 (racemic) [Compound 33]
IC50 [1]: < 100 nM | IC50 (IRAK4 (His-TEV-IRAK4)): < 100 nM | IC50 [2, 3]: 100 to 1000 nM

Cn1cc(-c2cccc(-c3ncc(-c4cnn([C@H]5CCC[C@H](NCCO)C5)c4)cn3)c2)cn1 (relative stereo) [Compound 2, 2-[Trans-3-(4-{2-[3-(1-Methyl-1H-pyrazol-4-yl)-phenyl]-pyrimidin-5-yl}-pyrazol-1-yl)-cyclohexylamino]-ethanol]
IC50 [1]: 100 to 1000 nM | IC50 (IRAK4 (His-TEV-IRAK4)): < 100 nM | IC50 [2, 3]: 1000 to 20000 nM

Cn1cc(-c2cccc(-c3ncc(-c4cnn([C@H]5CCC[C@H](N6CCOCC6=O)C5)c4)cn3)c2)cn1 (relative stereo) [Compound 3, 4-[Trans-3-(4-{2-[3-(1-Methyl-1H-pyrazol-4-yl)-phenyl]-pyrimidin-5-yl}-pyrazol-1-yl)-cyclohexyl]-morpholin-3-one]
IC50 [1]: 100 to 1000 nM | IC50 (IRAK4 (His-TEV-IRAK4)): < 100 nM | IC50 [2, 3]: 100 to 1000 nM

Cn1cc(-c2cccc(-c3ncc(-c4cnn([C@H]5CCC[C@@H](N6CCOCC6)C5)c4)cn3)c2)cn1 (relative stereo) [Compound 4, 4-[Cis-3-(4-{2-[3-(1-Methyl-1H-pyrazol-4-yl)-phenyl]-pyrimidin-5-yl}-pyrazol-1-yl)-cyclohexyl]-morpholine]
IC50 [1]: 100 to 1000 nM | IC50 (IRAK4 (His-TEV-IRAK4)): < 100 nM | IC50 [2, 3]: 100 to 1000 nM

Cn1cc(-c2cccc(-c3ncc(-c4cnn([C@H]5CCC[C@H](S(C)(=N)=O)C5)c4)cn3)c2)cn1 (relative stereo) [Compound 35]
IC50 [1]: 100 to 1000 nM | IC50 (IRAK4 (His-TEV-IRAK4)): < 100 nM | IC50 [2, 3]: 1000 to 20000 nM

C=CC(=O)N[C@@H]1CCC[C@H](n2cc(-c3cnc(-c4cccc(-c5cnn(C)c5)c4)nc3)cn2)C1 (relative stereo) [Compound 36]
IC50 [1]: < 100 nM | IC50 (IRAK4 (His-TEV-IRAK4)): < 100 nM | IC50 [2, 3]: 100 to 1000 nM

C=CS(=O)(=O)N[C@H]1CCC[C@H](n2cc(-c3cnc(-c4cccc(-c5cnn(C)c5)c4)nc3)cn2)C1 (relative stereo) [Compound 37, Ethenesulfonic acid [Trans-3-(4-{2-[3-(1-methyl-1H-pyrazol-4-yl)-phenyl]-pyrimidin-5-yl}-pyrazol-1-yl)-cyclohexyl]-amide]
IC50 [1]: < 100 nM | IC50 (IRAK4 (His-TEV-IRAK4)): < 100 nM | IC50 [2, 3]: 100 to 1000 nM

Cn1cc(-c2cccc(-c3ncc(-c4cnn([C@@H]5CCC[C@@H](NS(C)(=O)=O)C5)c4)cn3)c2)cn1 (single isomer, unassigned) [Compound 27]
IC50 [1]: 100 to 1000 nM | IC50 (IRAK4 (His-TEV-IRAK4)): < 100 nM | IC50 [2, 3]: 100 to 1000 nM

Cn1cc(-c2cccc(-c3ncc(-c4cnn([C@H]5CCC[C@@H](NS(C)(=O)=O)C5)c4)cn3)c2)cn1 (single isomer, unassigned) [Compound 28]
IC50 [1]: 100 to 1000 nM | IC50 (IRAK4 (His-TEV-IRAK4)): 100 to 1000 nM | IC50 [2, 3]: 1000 to 20000 nM

Cn1cc(-c2cccc(-c3ncc(-c4cnn(C5CCCC(NC(=O)OC(C)(C)C)C5)c4)cn3)c2)cn1 (stereo not drawn) [Compound 9, [3-(4-{2-[3-(1-Methyl-1H-pyrazol-4-yl)-phenyl]-pyrimidin-5-yl}-pyrazol-1-yl)-cyclohexyl]-carbamic acid tert-butyl ester]
IC50 [1]: < 100 nM | IC50 (IRAK4 (His-TEV-IRAK4)): < 100 nM | IC50 [2, 3]: 1000 to 20000 nM

C=CC(=O)N1CCC(n2cc(-c3cnc(-c4cccc(-c5cnn(C)c5)c4)nc3)cn2)CC1 [Compound 10, 1-[4-(4-{2-[3-(1-Methyl-1H-pyrazol-4-yl)-phenyl]-pyrimidin-5-yl}-pyrazol-1-yl)-piperidin-1-yl]-propenone]
IC50 [1]: 100 to 1000 nM | IC50 (IRAK4 (His-TEV-IRAK4)): < 100 nM | IC50 [2, 3]: 100 to 1000 nM

Cn1cc(-c2cccc(-c3ncc(-c4cnn(C5CCCC(N6CCC(F)(F)CC6)C5)c4)cn3)c2)cn1 (stereo not drawn) [Compound 11, 5-{1-[3-(4,4-Difluoro-piperidin-1-yl)-cyclohexyl]-1H-pyrazol-4-yl}-2-[3-(1-methyl-1H-pyrazol-4-yl)-phenyl]-pyrimidine]
IC50 [1]: 100 to 1000 nM | IC50 (IRAK4 (His-TEV-IRAK4)): < 100 nM | IC50 [2, 3]: 100 to 1000 nM

Cn1cc(-c2cccc(-c3ncc(-c4cnn(C5CCC[C@@H](NC6CCOC6)C5)c4)cn3)c2)cn1 (stereo partly drawn) [Compound 12, [3-Cis-(4-{2-[3-(1-Methyl-1H-pyrazol-4-yl)-phenyl]-pyrimidin-5-yl}-pyrazol-1-yl)-cyclohexyl]-(tetrahydro-furan-3-yl)-amine]
IC50 [1]: < 100 nM | IC50 (IRAK4 (His-TEV-IRAK4)): < 100 nM | IC50 [2, 3]: 100 to 1000 nM

C=CC(=O)N1CCCC(n2cc(-c3cnc(-c4cccc(-c5cnn(C)c5)c4)nc3)cn2)C1 (stereo not drawn) [Compound 14, 1-[3-(4-{2-[3-(1-Methyl-1H-pyrazol-4-yl)-phenyl]-pyrimidin-5-yl}-pyrazol-1-yl)-piperidin-1-yl]-propenone]
IC50 [1]: 100 to 1000 nM | IC50 (IRAK4 (His-TEV-IRAK4)): < 100 nM | IC50 [2, 3]: 100 to 1000 nM

C=CC(=O)NC1CCCC(n2cc(-c3cnc(-c4cccc(-c5cnn(C)c5)c4)nc3)cn2)C1 (stereo not drawn) [Compound 15, N-[3-(4-{2-[3-(1-Methyl-1H-pyrazol-4-yl)-phenyl]-pyrimidin-5-yl}-pyrazol-1-yl)-cyclohexyl]-acrylamide]
IC50 [1]: < 100 nM | IC50 (IRAK4 (His-TEV-IRAK4)): < 100 nM | IC50 [2, 3]: < 100 nM

C=CS(=O)(=O)N1CCCC(n2cc(-c3cnc(-c4cccc(-c5cnn(C)c5)c4)nc3)cn2)C1 (stereo not drawn) [Compound 17, 5-[1-(1-Ethenesulfonyl-piperidin-3-yl)-1H-pyrazol-4-yl]-2-[3-(1-methyl-1H-pyrazol-4-yl)-phenyl]-pyrimidine]
IC50 [1]: < 100 nM | IC50 (IRAK4 (His-TEV-IRAK4)): < 100 nM | IC50 [2, 3]: < 100 nM

C=CS(=O)(=O)N1CCC(n2cc(-c3cnc(-c4cccc(-c5cnn(C)c5)c4)nc3)cn2)CC1 [Compound 18, 5-[1-(1-Ethenesulfonyl-piperidin-4-yl)-1H-pyrazol-4-yl]-2-[3-(1-methyl-1H-pyrazol-4-yl)-phenyl]-pyrimidine]
IC50 [1]: < 100 nM | IC50 (IRAK4 (His-TEV-IRAK4)): < 100 nM | IC50 [2, 3]: < 100 nM

Cn1cc(-c2cccc(-c3ncc(-c4cnn(C5CCC[C@@H](S(C)(=N)=O)C5)c4)cn3)c2)cn1 (stereo partly drawn) [Compound 34, imino(methyl)(Cis-3-(4-(2-(3-(1-methyl-1H-pyrazol-4-yl)phenyl)pyrimidin-5-yl)-1H-pyrazol-1-yl)cyclohexyl)-I6-sulfanone]
IC50 [1]: 100 to 1000 nM | IC50 (IRAK4 (His-TEV-IRAK4)): < 100 nM | IC50 [2, 3]: 1000 to 20000 nM
